{
  "source": "patent US20040185073A1",
  "about": "“Cosmetic compositions containing salts of malonic acid” (Unilever Home & Personal Care USA, Division of Conopco, Inc., priority 2003, published 2004)",
  "tested_on": "Porcine Skin",
  "assay": "Porcine Skin Test (thermo-mechanical analyzer deflection, 20 gram load)",
  "method": "A feature of the present invention is that malonate salts are those which impart to the composition a positive Flexibility Value of at least 1, preferably at least 1.1 relative to water in the Porcine Skin Test. This test utilizes a thermo-mechanical analyzer with a 20 gram load to a one-cm diameter disc of Porcine Skin from which the immediate deflection is recorded in mm. Water serves as a control. Skin samples are measured before and 24 hours after one, two and three treatments. These treatments consist of 150 μl of each composition being applied to the skin for five minutes, then removed without rinsing. Thereafter, drying is performed at 21° C. and less than 100% relative humidity. Data transformation consists of determining the ratio of the deflection value after three applications of the test composition to the deflection value of the water standard. The ratio is defined as the Flexibility Value.\nA variety of carboxylic acid salts were evaluated to determine their response in a Porcine Skin Test. A Perkin-Elmer Thermo-Mechanical Analyzer, Model TMS-1, was operated with a 20 gram load placed to a center of a one-cm diameter disc of Porcine Skin. Deflection of the skin in mm was immediately recorded. The sample size was six pieces of skin per treatment. Water was used as a control. […] Each was measured dry before and 24 hours after one, two and three treatments. […]",
  "data": [
    {"substance": "Dimethylethanolammonium Malonate [Malonate Salt]", "values": [
      {"measurement": "Flexibility Value", "setting": "test material solution, 150 μl applied 5 minutes, ratio of deflection after three applications to deflection of water standard (water = 1.00)", "value": 1.36},
      {"measurement": "effect on skin flexibility (in words)", "setting": "test material solutions, versus water", "value": "significantly more flexible"}
    ]}
  ]
}
